A value given as a limit tells only on which side of the number the result lay.

Among the data in BindingDB's records for doi:10.7270/Q28G8J4C (Broad Institute, 2009) are EC50 values, retold here.

This assay addresses T1, POsterior Segregation (Caenorhabditis elegans, UniProt G5EF15).
T1 sequence (G5EF15 whole entry): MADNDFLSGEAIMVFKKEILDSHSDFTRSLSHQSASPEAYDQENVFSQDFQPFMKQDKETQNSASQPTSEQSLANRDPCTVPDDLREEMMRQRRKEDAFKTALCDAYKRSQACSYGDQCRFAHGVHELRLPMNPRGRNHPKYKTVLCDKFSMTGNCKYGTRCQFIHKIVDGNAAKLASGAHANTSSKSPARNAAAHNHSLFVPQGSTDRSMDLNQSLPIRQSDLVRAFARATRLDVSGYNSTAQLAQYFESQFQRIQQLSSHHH
Put plainly: inhibitors of POS-1/mex-3 RNA binding, dose response, biochemical, fluorescence polarization (AID 1964). For orientation: Polarisation of emitted light reports the rotation of a fluorescent probe.
As usually defined, the EC50 is the midpoint of the concentration-response curve. For the compound `Cc1cc(N2C(=O)C(=O)C(C(=O)c3cc4ccccc4o3)C2c2ccc([N+](=O)[O-])cc2)no1` (stereo not given) [3-(1-benzofuran-2-carbonyl)-4-hydroxy-1-(5-methyl-1,2-oxazol-3-yl)-2-(4-nitrophenyl)-2H-pyrrol-5-one], the EC50 was above 300 µM. For `C=CCOc1cccc(C2C(C(=O)c3ccc(C)o3)C(=O)C(=O)N2c2nnc(C)s2)c1` (stereo not given) [3-(5-methylfuran-2-yl)carbonyl-1-(5-methyl-1,3,4-thiadiazol-2-yl)-4-oxidanyl-2-(3-prop-2-enoxyphenyl)-2H-pyrrol-5-one] the value was above 300 µM; for `C=CCOc1cccc(C2C(C(=O)c3ccc(C)o3)C(=O)C(=O)N2c2nccs2)c1` (stereo not given) [3-(5-methylfuran-2-yl)carbonyl-4-oxidanyl-2-(3-prop-2-enoxyphenyl)-1-(1,3-thiazol-2-yl)-2H-pyrrol-5-one], above 300 µM. The compound `CCCOc1cccc(C2C(C(=O)c3ccco3)C(=O)C(=O)N2c2nnc(C)s2)c1` (stereo not given) [3-(furan-2-carbonyl)-4-hydroxy-1-(5-methyl-1,3,4-thiadiazol-2-yl)-2-(3-propoxyphenyl)-2H-pyrrol-5-one] returned an EC50 of 51.9 µM. To `C=CCOc1ccc(C2C(C(=O)c3ccco3)C(=O)C(=O)N2c2nnc(C)s2)cc1` (stereo not given) [3-(furan-2-carbonyl)-4-hydroxy-1-(5-methyl-1,3,4-thiadiazol-2-yl)-2-(4-prop-2-enoxyphenyl)-2H-pyrrol-5-one] belongs above 300 µM; to `Cc1nnc(N2C(=O)C(=O)C(C(=O)c3ccco3)C2c2cccc3ccccc23)s1` (stereo not given) [3-(furan-2-carbonyl)-4-hydroxy-1-(5-methyl-1,3,4-thiadiazol-2-yl)-2-naphthalen-1-yl-2H-pyrrol-5-one], above 300 µM. To `CSc1nnc(N2C(=O)C(=O)C(C(=O)c3ccco3)C2c2ccccc2)s1` (stereo not given) [3-(furan-2-carbonyl)-4-hydroxy-1-(5-methylsulfanyl-1,3,4-thiadiazol-2-yl)-2-phenyl-2H-pyrrol-5-one] belongs above 300 µM; to `O=C1C(=O)N(c2ncccn2)C(c2cccs2)C1C(=O)c1ccco1` (stereo not given) [3-(furan-2-carbonyl)-4-hydroxy-1-pyrimidin-2-yl-2-thiophen-2-yl-2H-pyrrol-5-one], 39.9 µM; to `COc1ccc(C2C(C(=O)c3ccco3)C(=O)C(=O)N2c2nnc(C)s2)cc1` (stereo not given) [3-(furan-2-carbonyl)-4-hydroxy-2-(4-methoxyphenyl)-1-(5-methyl-1,3,4-thiadiazol-2-yl)-2H-pyrrol-5-one], 109 µM. To `Cc1ccc(C2C(C(=O)c3ccco3)C(=O)C(=O)N2c2nnc(C)s2)cc1` (stereo not given) [3-(furan-2-carbonyl)-4-hydroxy-2-(4-methylphenyl)-1-(5-methyl-1,3,4-thiadiazol-2-yl)-2H-pyrrol-5-one] belongs above 300 µM; to `CSc1ccc(C2C(C(=O)c3ccco3)C(=O)C(=O)N2c2nnc(SC)s2)cc1` (stereo not given) [3-(furan-2-carbonyl)-4-hydroxy-2-(4-methylsulfanylphenyl)-1-(5-methylsulfanyl-1,3,4-thiadiazol-2-yl)-2H-pyrrol-5-one], 6.79 µM. Consider `O=C1Nc2ccccc2C1=NNc1ccccc1` [3-(phenylhydrazo)-2-indolone], for which a half-maximal effect (EC50) was put at 7.37 µM. To `N#CC1C(=N)C2=C(N3CCCCC3)CCCC2C1(C#N)C#N` (stereo not given) [3-Amino-4-piperidin-1-yl-5,6,7,7a-tetrahydro-indene-1,1,2-tricarbonitrile] belongs 89.4 µM. With `COc1ccc(N2C(=O)C(=Nc3ccccc3O)C(Cl)C2=O)cc1` (stereo not given) [3-Chloro-4-(2-hydroxy-phenylamino)-1-(4-methoxy-phenyl)-pyrrole-2,5-dione], the EC50 was above 300 µM. For `O=C1C(=Nc2ccccc2O)C(Cl)C(=O)N1c1ccccc1` (stereo not given) [3-Chloro-4-(2-hydroxy-phenylamino)-1-phenyl-pyrrole-2,5-dione] the value was above 300 µM; for `O=c1c2ccccc2nc(N=NCc2ccc(O)cc2)n1O` [3-Hydroxy-2-{N'-[1-(4-hydroxy-phenyl)-meth-(E)-ylidene]-hydrazino}-3H-quinazolin-4-one], above 300 µM. To `Cc1cc(CN=Nc2ccc([N+](=O)[O-])cn2)c(C)n1-c1cccc(C(=O)O)c1` [3-[2,5-dimethyl-3-[[(5-nitro-2-pyridinyl)hydrazinylidene]methyl]-1-pyrrolyl]benzoic acid] belongs above 300 µM; to `O=NCc1cccn1-c1cccc(C(=O)O)c1` [3-[2-(hydroximinomethyl)pyrrol-1-yl]benzoic acid], above 300 µM. For `Cc1[nH]n(C(N)=S)c(=O)c1N=Nc1cccc(C(=O)O)c1` [3-[(1-carbamothioyl-3-methyl-5-oxo-4H-pyrazol-4-yl)diazenyl]benzoic acid] the value was 35.1 µM. As for `O=[N+]([O-])c1cc([CH+][N-]n2c(O)csc2=S)ccc1Cl` [3-[(4-chloranyl-3-nitro-phenyl)methylideneamino]-2-sulfanylidene-1,3-thiazolidin-4-one], the 50% effective concentration (EC50) worked out at 18.6 µM. For `Oc1ccc(C=Nn2c(O)csc2=S)c(O)c1O` [3-[[(E)-[2,3-bis(oxidanyl)-4-oxidanylidene-cyclohexa-2,5-dien-1-ylidene]methyl]amino]-2-sulfanylidene-1,3-thiazolidin-4-one] the value was 5.17 µM; for `N#CC1C(=N)Oc2ccc3ccc(O)cc3c2C1c1ccsc1` (stereo not given) [3-amino-9-hydroxy-1-(3-thienyl)-1H-benzo[f]chromene-2-carbonitrile], 76.1 µM; for `CCCCOc1c(Br)cc(CN=O)cc1OCC` [3-bromo-4-butoxy-5-ethoxy-benzaldoxime], above 300 µM. For `COc1ccccc1N1C(=O)C(=Nc2ccccc2O)C(Cl)C1=O` (stereo not given) [3-chloranyl-4-[(2-hydroxyphenyl)amino]-1-(2-methoxyphenyl)pyrrole-2,5-dione] the value was 34.7 µM.

`O=C1C=C(NNC(=O)c2sc3ccccc3c2Cl)CCC1` [3-chloranyl-N-[(3-oxidanylidenecyclohexylidene)amino]-1-benzothiophene-2-carboxamide] came in with an EC50 of 22 µM. To `CC(C)c1nnc(N2C(=O)C(=O)C(C(=O)c3cccs3)C2c2ccccc2)s1` (stereo not given) [3-hydroxy-1-(5-isopropyl-1,3,4-thiadiazol-2-yl)-5-phenyl-4-(2-thenoyl)-3-pyrrolin-2-one] belongs 33.9 µM; to `Cc1[nH]n(C(N)=S)c(=O)c1N=Nc1ccc(S(N)(=O)=O)cc1` [3-methyl-5-oxidanylidene-4-[(4-sulfamoylphenyl)diazenyl]-4H-pyrazole-1-carbothioamide], 19.7 µM. The compound `O=C1CC(=O)c2c(O)cc(O)c(O)c2C1=O` [4,5,7,8-tetrahydroxy-1,2-naphthoquinone] showed a concentration giving a half-maximal response (EC50) of 1.07 µM.

`COc1cc(C2C3=C(CCCC3=O)OC(=N)C2C#N)cc(OC)c1OC(=O)N1CCOCC1` (stereo not given) [4-(2-amino-3-cyano-5-oxo-5,6,7,8-tetrahydro-4H-chromen-4-yl)-2,6-dimethoxyphenyl morpholine-4-carboxylate] displayed an EC50 above 300 µM. The compound `COc1cc(C2C3=C(CCCC3=O)OC(=N)C2C#N)ccc1OC(=O)N1CCOCC1` (stereo not given) [4-(2-amino-3-cyano-5-oxo-5,6,7,8-tetrahydro-4H-chromen-4-yl)-2-methoxyphenyl morpholine-4-carboxylate] returned an EC50 above 300 µM. In turn, `N#CC1C(=N)OC2=C(C(=O)CCC2)C1c1ccc(OC(=O)N2CCOCC2)cc1` (stereo not given) [4-(2-amino-3-cyano-5-oxo-5,6,7,8-tetrahydro-4H-chromen-4-yl)phenyl morpholine-4-carboxylate] showed an EC50 above 300 µM. To `COc1cc(C2NC(=S)N=C(C)C2C(=O)OC(C)C)ccc1OC(C)C` (stereo not given) [4-(3-methoxy-4-propan-2-yloxyphenyl)-6-methyl-2-sulfanylidene-3,4-dihydro-1H-pyrimidine-5-carboxylic acid propan-2-yl ester] belongs above 300 µM; to `O=C(O)c1ccc(NN=CC2=C(N3CCOCC3)C(=Cc3ccccc3)CC2)cc1` [4-[2-[[(3Z)-2-(4-morpholinyl)-3-(phenylmethylene)-1-cyclopentenyl]methylidene]hydrazinyl]benzoic acid], 176 µM; to `CC(=O)C1C(c2ccccc2)=NC(=O)NC1c1ccc(O)c(O)c1` (stereo not given) [4-[3,4-bis(oxidanyl)phenyl]-5-ethanoyl-6-phenyl-3,4-dihydro-1H-pyrimidin-2-one], above 300 µM. Compound `Cc1ccc(-c2c(CCC(C)N=O)oc3ccc(Cl)cc23)o1` (stereo not given) [4-[5-chloro-3-(5-methyl-2-furanyl)-2-benzofuranyl]-2-butanone oxime] yielded a half-maximal effective concentration (EC50) above 300 µM. To `Cc1nnc(SC(=Cc2ccc(OCc3ccc(C(=O)O)cc3)cc2)C(=O)O)[nH]1` [4-[[4-[(E)-2-[(5-methyl-1H-1,2,4-triazol-3-yl)sulfanyl]-3-oxidanyl-3-oxidanylidene-prop-1-enyl]phenoxy]methyl]benzoic acid] belongs 17.8 µM. The compound `COc1ccc(C(=O)Nc2nnc(CC(=O)NN=Cc3ccc(O)cc3O)s2)cc1` [4-methoxy-N-[5-[2-oxidanylidene-2-[2-[(E)-(2-oxidanyl-4-oxidanylidene-cyclohexa-2,5-dien-1-ylidene)methyl]hydrazinyl]ethyl]-1,3,4-thiadiazol-2-yl]benzamide] showed a concentration for a half-maximal effect (EC50) of 125 µM. For `CC1(C)CC(=O)C2=C(C1)OC(=N)C(C#N)C2c1ccc(OC(=O)N2CCOCC2)cc1` (stereo not given) [4-morpholinecarboxylic acid [4-(2-amino-3-cyano-7,7-dimethyl-5-oxo-6,8-dihydro-4H-1-benzopyran-4-yl)phenyl] ester] the value was above 300 µM; for `Cc1cc(CN=Nc2ccc([N+](=O)[O-])cn2)c(C)n1-c1ccc(C(=O)O)cc1` [4-{2,5-dimethyl-3-[2-(5-nitro-2-pyridinyl)carbonohydrazonoyl]-1H-pyrrol-1-yl}benzoic acid], above 300 µM; for `Cc1sc2ncnc(N=NC(C)c3ccccn3)c2c1C` (stereo not given) [5,6-dimethyl-N-(1-pyridin-2-ylethylideneamino)thieno[2,3-d]pyrimidin-4-amine], 23.3 µM.
